From patent publication US20100286164A1, “SUBSTITUTED ARYL ALKYLAMINO-OXY-ANALOGS AND USES THEREOF” (The Brigham and Women's Hospital, Inc, priority 2007, published 2010)

Tests used:
Format in all cases: biochemical
[1] = target: T1, γ-secretase (C100FLAG APP-based substrate) (Homo sapiens, UniProt P49768); assay: In vitro γ-secretase assay, C-100 Flag (APP-based substrate) cleavage; settings: effect on C-100 Flag cleavage; compounds tested in vitro at 100 μM
T1 construct: made in house; host or cells: S-1 CHO cell line (Chinese hamster ovary)
Protocol: (§1) Purification of γ-Secretase and in Vitro γ-Secretase Assays—The following procedures can be used to isolate γ-secretase and measure its enzymatic activity. The multistep procedure for the high grade purification of human γ-secretase from the S-1 cells is performed as described previously (Fraering, P. C., et al. (2004) Biochemistry 43, 9774-9789). In vitro γ-secretase assays using the recombinant APP-based substrate C100FLAG and the recombinant Notch-based substrate N100FLAG are performed as reported previously (Esler, W. P., Kimberly, W. T., Ostaszewski, B. L., Ye, W., Diehl, T. S., Selkoe, D. J., and Wolfe, M. S. (2002) Proc. Natl. Acad. Sci. U.S.A. 99, 2720-2725, Kimberly, W. T., et al. (2003) Biochemistry 42, 137-144). Basically, the proteolytic reaction mixtures contain C100FLAG and N100FLAG substrate at a concentration of 1 μm, purified γ-secretase solubilized in 0.2% CHAPSO/HEPES, pH 7.5, at 10-fold dilution from stock (stock=the M2 anti-FLAG-eluted fraction in the purification protocol from S-1 cells (Fraering, P. C., et al. (2004) Biochemistry 43, 9774-9789)), 0.025% phosphatidylethanolamine (PE), and 0.10% phosphatidylcholine (PC). All the reactions are stopped by adding 0.5% SDS, and the samples are assayed for Aβ40 and Aβ42 by ELISA as described (Xia, W., Zhang, J., Ostaszewski, B. L., Kimberly, W. T., Seubert, P., Koo, E. H., Shen, J., and Selkoe, D. J. (1998) Biochemistry 37, 16465-16471). The capture antibodies are 2G3 (to Aβ residues 33-40) for the Aβ40 species and 21F12 (to Aβ residues 33-42) for the Aβ42 species.
(§2) Western Blotting and Antibodies—The following assay can be used to determine the extent to which the compounds of interest modulate the cleavage of APP and the Notch receptor. For Western analysis of PS1-NTF, PS1-CTF, Aph1α2-HA, FLAG-Pen-2, and NCT-GST, the samples are run on 4-20% Tris-glycine polyacrylamide gels, transferred to polyvinylidene difluoride, and can be probed with Ab14 (for PS1-NTF, 1:2000; a gift of S. Gandy), 13A11 (for PS1-CTF, 5 μg/ml; a gift of Elan Pharmaceuticals), 3F10 (for Aph1α2-HA, 50 ng/ml; Roche Applied Science), anti-FLAG M2 (for FLAG-Pen-2, 1:1000; Sigma), or αGST antibodies (for NCT-GST, 1:3000; Sigma). Samples from the γ-secretase activity assays (above) are run on 4-20% Tris-glycine gels and can be transferred to polyvinylidene difluoride membranes to detect AICD-FLAG with anti-FLAG M2 antibodies (1:1000, Sigma) and NICD-FLAG with Notch Ab1744 antibody (1:1000, Cell Signaling Technology), which is selective for the N terminus of NICD; the same samples are transferred to nitrocellulose membranes to detect Aβ with the anti-Aβ 6E10 antibody. Levels of AICD-FLAG and NICD-FLAG are estimated by densitometry using AlphaEase/Spot Denso (Alpha Innotech Corp.).
(§3) Naphthyl Amine Alcohol Analogs and Assay Data—Compounds listed in Table 2 may be assayed as described herein (e.g., in Examples 3 and 4) and the specificity may be evaluated by comparing the relative inhibitions of C-100 Flag and N-100 Flag cleavage. The potency of the inhibitor may be evaluated with an Aβ1-40 ELISA assay (e.g., using an Aβ40 ELISA kit available from Invitrogen, Carlsbad, Calif.). […] The following table indicates the properties of certain compounds of the invention that were assayed as described herein. (INH=Inhibits)

[2] = target: T2, γ-secretase (N100FLAG Notch-based substrate) (Homo sapiens, UniProt P49768); assay: In vitro γ-secretase assay, N-100 Flag (Notch-based substrate) cleavage; settings: effect on N-100 Flag cleavage; compounds tested in vitro at 100 μM
T2 construct: made in house; host or cells: S-1 CHO cell line (Chinese hamster ovary)
Protocol: as §1, §2, §3

[3] = target: T3, γ-secretase (Aβ1-40 production) (Homo sapiens, UniProt P49768); assay: γ-Secretase assay, Aβ1-40 ELISA; settings: 100 μM
T3 construct: made in house; host or cells: S-1 CHO cell line (Chinese hamster ovary)
Protocol: as §1, §3

Row | Compound | γ-Secretase Assay C-100 Flag [1] | γ-Secretase Assay N-100 Flag [2] | inhibition at 100 µM [3] [%] | γ-Secretase Assay ELISA % Inhibition [100 μM] Aβ1-40 [3] [%]
1 | CC(C)N(CCC(O)c1ccc2ccccc2c1)Cc1ccccc1 (centres unmarked) [Example 1, 3-(benzyl(isopropyl)amino)-1-(naphthalen-2-yl)propan-1-ol] | Inhibits (Inh) | Enhances (Enh) | 16 | –
2 | OC(CCN1CCN(c2cccc(C(F)(F)F)c2)CC1)c1ccc2ccccc2c1 (centres unmarked) [Example 13] | Enh | Enh | 38 | –
3 | OC(CCN1CCN(c2ccc(F)cc2)CC1)c1ccc2ccccc2c1 (centres unmarked) [Example 14, 3-(4-(4-fluorophenyl)piperazin-1-yl)-1-(naphthalen-2-yl)propan-1-ol] | Inh | Enh | 61 | –
4 | CC(C)N(CCC(O)c1ccc2ccccc2c1)Cc1ccc(Cl)c(Cl)c1 (centres unmarked) [Example 17] | Inh | Enh | 60 | –
5 | CC(C)N(CCC(O)c1ccc2ccccc2c1)Cc1ccc(F)c(F)c1 (centres unmarked) [Example 18] | Inh | Enh | 64 | –
6 | CC(C)N(CCC(O)c1cccc2ccccc12)Cc1ccccc1 (centres unmarked) [Example 19] | Inh | Enh. | 46 | –
7 | CC(C)N(CCC(O)c1ccc2ccccc2c1)c1ccccc1 (centres unmarked) [Example 20] | Inh | Inh | 68 | –
8 | CC(C)N(CCC(O)c1ccc2ccccc2c1)Cc1cc(F)cc(F)c1 (centres unmarked) [Example 31] | Inh | Inh | 54 | –
9 | CCOc1ccc(NCCC(O)c2ccc3ccccc3c2)cc1 (centres unmarked) [Example 32] | Inh | Inh | 40 | –
10 | OC(CCNc1ccc(F)c(Cl)c1)c1ccc2ccccc2c1 (centres unmarked) [Example 33] | Inh | Inh | 40 | –
11 | CN(CCC(O)c1ccc2ccccc2c1)Cc1ccccc1 (centres unmarked) [Example 44] | – | Enh | – | 56
12 | Cc1ccc(C(O)CCN(Cc2ccccc2)C(C)C)cc1F (centres unmarked) [Example 54] | – | Inh | 29 | –
13 | CC(C)N(CCC(O)c1cc(F)cc(Cl)c1)Cc1ccccc1 (centres unmarked) [Example 55] | – | Inh | 30 | –
14 | Cc1cccc(C)c1C(O)CCN(Cc1ccccc1)C(C)C (centres unmarked) [Example 56] | – | Inh | 20 | –
15 | CC(C)N(CCC(O)c1cc(C(F)(F)F)cc(C(F)(F)F)c1)Cc1ccccc1 (centres unmarked) [Example 57] | – | Inh | 47 | –
16 | CC(C)N(CC[C@@H](O)c1ccc2ccccc2c1)Cc1ccccc1 [Example 75] | – | Inh | 0 | –
17 | OC(CN1CCN(c2ccccc2)CC1)c1ccc2ccccc2c1 (centres unmarked) [Example 81] | – | Enh | 0 | –
18 | CC(C)N(Cc1ccccc1)CC(O)c1ccc2ccccc2c1 (centres unmarked) [Example 82] | Inh | Inh | 0 | –
19 | O=[N+]([O-])c1cc(NCCC(O)c2ccc3ccccc3c2)ccc1Cl (centres unmarked) [Example 83] | Inh | Inh | 46 | –
